Results on one compound are retold here after US10265342B2, “Sustained-release composition, method for fabricating, and use thereof” (NATIONAL TSING HUA UNIVERSITY, priority 2017, dated 2019).

The subject of data set [1] is hindlimb ischemia (ligation of femoral artery). Briefly: mouse hindlimb ischemia model. The data set is classed as in vivo, BALB/c mice. Conditions: intramuscular injection into quadriceps muscle. The procedure:
As mentioned above, the sustained-release composition can be applied for promoting angiogenesis in ischemic tissues. Thus, the effect of such the use will be further evaluated through a mouse hindlimb ischemia model and utilizes the sustained-release composition of the 1st embodiment of the present disclosure. In the present disclosure, all animal experimentation processes are performed according to an animal care and use guideline promulgated by Council of Agriculture, Executive Yuan, R.O.C. (Taiwan). In particular, BALB/c mice are served as a platform for developing the animal model. In the beginning, for each of the mice, 2 L/min of oxygen and 4% inhaled isoflurane are provided into an anesthesia box to introduce a general anesthesia in the mouse under room temperature, and the mouse is intubated and supplied by 3% isoflurane continuously. After a medial thigh area of the mouse is cut by a scalpel, the mouse is subjected by ligation of upper end and lower end of femoral artery to simulate hindlimb ischemia.
Subsequently, an intramuscular injection is performed into the quadriceps muscle adjacent to the proximal ligation site. The abovementioned mice can be divided into four groups according to the treatment. In details, the mice of Group 1 are only injected with physiological saline. […] The mice of Group 4 are injected with the sustained-release composition of the 1st embodiment. […]

For data set [2] the following is noted: cited from earlier work.

Consider `C=CCSSSCC=C` [free diallyl trisulfide, diallyl trisulfide], for which the “hindlimb kept or lost after fourteen days” value in data set [1] is given as “lose its hindlimb”. In data set [1] (fourteen days), the “muscle atrophy of the hindlimb” value was “slighter than that of the mice of Group 1 and Group 3”. The “half-life in aqueous solution” value in data set [2] is given as “around 15 minutes”.
